1 molecule from patent publication US20230002446A1, “ANTI-INFLAMMATORY AGENTS” (The University of Sydney, priority 2019, published 2023) can be followed below.

The test system of data set [1] is C57BL/6 mice. Nature of the data set: imiquimod-induced psoriasis model. The data set is classed as in vivo. The method, then: FIG. 4—Peptide administration reduces local disease severity in a mouse model of psoriasis. (A) Experimental outline (B) Clinical scores of mice receiving PBS or peptide RP23 (SEQ ID NO:12) injection, compared to daily (0-4 days) topical application of glucocorticoid on the back and ear. (C) Measures of disease local to the peptide RP23 injection site. Redness was measured using an unbiased erythema meter and skin thickness by manual callipers. (D) Spleen weight at day 5 as a measure of systemic immune suppression. […] Data are presented as mean±S.E.M. Statistical significance was determined by ANOVA with Dunnett's multiple comparison test, *p<0.05, **p<0.01, ***p<0.001, ****p<0.0001.
FIG. 10. Therapeutic synergy of RP23 and topical steroid in the murine imiquimod-induced psoriasis model. Aldara cream (5% imiquimod, 57.5 mgs) was applied daily (days 0-4) to the backs of C57BL/6 female mice to induce psoriasis. Clinical scores (PASI), modified psoriasis area and severity index) of mice receiving (A) PBS or RP23 injection at day −1, with or without topical application of glucocorticoid (0.05% betamethasone dipropionate, “BD” 30 mgs) on the back at day 0 (B) PBS or RP23 injection at day 1 and topical application of glucocorticoid at day 1, in comparison to PBS injection only at day −1. Data are the means+/−SEM (n=5). Statistical significance was determined by ANOVA with Dunnett's multiple comparison test to PBS only control, *p<0.05, **p<0.01, ***p<0.001, ****p<0.0001.
The backs of 8-week old female C57BL/6 mice (Australian BioResources) were coarse shaved. A minimum of 24 hours later, 10 nmol RP23 was delivered via sub-cutaneous injection at the lower back in 200 μl phosphate buffered saline (PBS). Groups of mice acting as positive controls for disease development received injection of PBS only. One or seven days later, psoriasis-like inflammation was induced via topical application of 5% imiquimod cream (Aldara, Inova Pharmaceuticals) to the shaved back (57.5 mgs) and one ear (5 mg, divided between dorsal and ventral sides). The contralateral ear served as a negative control for imiquimod-induced inflammation. Imiquimod application was repeated daily for four consecutive days. C57BL/6 mice experience rapid weight loss (up to 20%) upon application of imiquimod cream. Supportive care was provided in the form of dietary supplementation commenced 2 days prior to imiquimod application, and intra-peritoneal injection of 300 μl sterile PBS on days two and three of imiquimod application. Disease progression was monitored for five days, by recording weight loss and grading disease of the back skin using a modified Psoriasis Area and Severity Index (PASI) clinical scoring system, that assessed only disease severity. Additionally, erythema meter (DSM II ColorMeter, Cortex Technology, Denmark) readings were taken at four quadrants on the back skin and skin backfold thickness measurements were recorded using manual callipers. Disease progression of the ear skin was determined by recording ear thickness, measured by manual callipers. As a positive control for immune suppressive therapy, groups of mice received daily topical application of betamethasone dipropionate 0.05% (MSD) cream (30 mgs on the back, 10 mgs on the ear).
Aldara cream (5% imiquimod, 57.5 mgs) was applied daily (days 0-4) to the backs of C57BL/6 female mice to induce psoriasis. Clinical scores (PASI, modified psoriasis area and severity index) of mice receiving prophylactic PBS or RP23 (at day −1), with or without topical application of glucocorticoid (0.05% betamethasone dipropionate, 30 mgs) to the back at day 0, were determined (FIG. 10A).
RP23 and BD therapy were also tested when given synergistically at a therapeutic timepoint (at day 1). Psoriasis was induced as above, but clinical scores were determined daily for 10 days after ceasing imiquimod application at day 5, to record the rate and degree of psoriasis disease resolution (FIG. 10B).

Data set [2] relates to murine bone marrow derived macrophages. Nature of the data set: LPS-stimulated bone marrow derived macrophages, cytokine ELISA. The following applies: after LPS-stimulation. The data set is classed as cell-based. The protocol:
(§1) FIG. 5—Peptide administration reduces the activation of pro-inflammatory DCs and macrophages. (A) C57BL/6 murine splenocytes were stimulated with LPS±peptide RP23 (SEQ ID NO:12) and expression of activation markers on DCs was assessed by flow cytometry. (B) Bone marrow derived murine macrophages were incubated with peptide RP23 (30 mins) and stimulated with LPS (overnight). Positive controls were stimulated with LPS only. Negative controls were unstimulated. Inflammatory cytokine production was assessed by ELISA. (C) CD14+ cells were isolated from human blood and differentiated into macrophages by culturing with human serum. Cells were incubated with peptide RP23 (30 mins), then stimulated overnight with LPS (left panel) or imiquimod (right panel). Inflammatory cytokine (IL-6 or IL-12/23) production was assessed by ELISA. Representative of 6 donors. Data are presented as mean±S.E.M. Statistical significance was determined by ANOVA with Dunnett's multiple comparison test, *p<0.05, **p<0.01, ***p<0.001.
(§2) Using an in vitro culture system, it was determined whether RP23 could suppress the activity of specific pro-inflammatory immune cells. […] The culture of murine bone marrow derived macrophages with RP23 led to reduced IL-6, MCP-1 and TNF release after LPS-stimulation (FIG. 5b). Similarly, primary human blood derived macrophages had reduced IL-6 and IL-12/23 release after stimulation with either LPS or imiquimod (FIG. 5c).
A general note: An ELISA detects its analyte on a solid surface through an enzyme-linked reagent.

For data set [3], the system named is primary human blood derived macrophages. Nature of the data set: LPS- or imiquimod-stimulated human blood derived macrophages, cytokine ELISA. The data set is classed as cell-based. As to conditions: after stimulation with either LPS or imiquimod. The protocol: as §1
Using an in vitro culture system, it was determined whether RP23 could suppress the activity of specific pro-inflammatory immune cells. […] The culture of murine bone marrow derived macrophages with RP23 led to reduced IL-6, MCP-1 and TNF release after LPS-stimulation (FIG. 5b). […]

In data set [4] the test system is human macrophages/monocytes. The class given is cell-based. The method, then: (§3) FIG. 6—Peptide administration is not cytostatic or cytotoxic to murine and human macrophages/monocytes. Cytostatic/cytotoxic effect of peptide RP23 (SEQ ID NO:12) was assessed after overnight incubation (A) by WST-1 assay in RAW and THP-1 cell lines (data are the means of 2 replicates) (B) by LDH assay in primary murine BMDMs or human MDMs (data are mean±S.E.M).

Data set [5] concerns murine macrophages/monocytes. The class given is cell-based. The protocol: as §3
Data set [6] concerns dermal dendritic cells. The data set can be described thus: intradermal injection into healthy human skin explants, myeloid cell activation. The class given is cell-based. The following applies: intra-dermal injection, overnight culture. The method, then:
FIG. 7—Peptide administration reduces spontaneous myeloid cell activation in human skin. (A) Peptide RP23 (SEQ ID NO: 12) was injected intradermally into healthy human skin grafts. Myeloid cell activation was assessed after overnight culture. (B) The effect of peptide RP23 on the spontaneous upregulation of activation markers on myeloid cell subsets in the skin. Data are representative of 6 donors.
as §2

Structures are written as SMILES. Where a SMILES comes first, the peptide text is derived from it. [ ]: non-standard residue; d: D form. AEEA = NCCOCCOCC(=O)O

Consider `CSCC[C@H](NC(=O)COCCOCCNC(=O)[C@H](CCCCN)NC(=O)[C@H](CCCCN)NC(=O)[C@H](CCCCN)NC(=O)[C@@H](N)CCCCN)C(=O)N[C@H](C(=O)N1CCC[C@H]1C(=O)NCC(=O)N[C@H](C(=O)N[C@@H](CCC(N)=O)C(=O)N[C@@H](CO)C(=O)N1CCC[C@H]1C(=O)N[C@@H](Cc1ccccc1)C(=O)N[C@@H](Cc1ccccc1)C(=O)N[C@@H](CC(C)C)C(=O)N[C@@H](CC(C)C)C(=O)N[C@@H](CC(C)C)C(=O)N[C@@H](CC(C)C)C(=O)N[C@@H](CC(C)C)C(=O)N[C@H](C(=O)N[C@H](C(=O)N[C@@H](CC(C)C)C(=O)N[C@H](C(=O)N[C@H](C(=O)N[C@H](C(=O)O)C(C)C)C(C)C)[C@@H](C)O)C(C)C)[C@@H](C)O)[C@@H](C)O)[C@@H](C)O` [RP23] (H-KKKK[AEEA]MTPGTQSPFFLLLLLTVLTVV-OH), for which the “disease at a distal site (ear thickness)” value in data set [1] (injection at lower back, ear measured) is reported as “did not suppress disease at a distal site”. In addition, in data set [1] (single injection), the local erythema entry is on record as “reduced”, the scaling entry was “reduced” and the skin thickness entry is “reduced”. In addition, the “systemic immune suppression / locality of effect” value in data set [1] (spleen weight at day 5, distal ear thickness (FIG. 4d)) is given as “isolated to the area in which RP23 was delivered”. In addition, in data set [2], the IL-6 release entry is given as “reduced”, the MCP-1 release entry is on record as “reduced” and the TNF release entry is recorded as “reduced”. Moreover, in data set [3], the IL-6 release entry is “reduced” and the IL-12/23 release entry is given as “reduced”. For the same molecule, in data set [4], the “cytostatic or cytotoxic effects” value is on record as “without causing any cytostatic or cytotoxic effects”. Besides, the “cytostatic or cytotoxic effects” value in data set [5] is on record as “without causing any cytostatic or cytotoxic effects”. For the same molecule, the “spontaneous activation of dermal dendritic cells” value in data set [6] is recorded as “reduced spontaneous activation of dermal dendritic cells”.
